{"source": "patent US7648993B2", "about": "“Methods of treating disorders with Group I mGluR antagonists” (Brown University, priority 2001, dated 2010)", "key": {"[1]": {"system": "high-density cultured hippocampal neurons", "experiment": "Biotinylation and quantitative western blot of surface expressed receptors", "type": "cell-based, rat", "conditions": "DHPG 50 μM, 5 min", "protocol": "To confirm the effect of mGluR activation on surface AMPARs using an alternative approach, we treated high-density cultures with DHPG (50 μM, 5 min) or control medium and surface receptors were labeled with biotin 60 minutes later. Biotinylated receptors were precipitated and the ratio of surface to total GluR1 was determined by quantitative western blotting. This biochemical analysis confirmed that surface AMPARs are reduced by DHPG treatment to only 56.8±4.0% of the value in control cultures (n=4 in each treatment group; p<0.01; FIG. 6).\nBiotinylation experiments were performed as previously described^35. Briefly, 2-week-old high-density cultured hippocampal neurons were treated with either control medium or 50 μM DHPG for 5 min, and incubated for 1 h at 37° C. to allow endocytosis to occur. The sister cultures were placed on ice to stop endocytosis and washed two times with ice-cold artificial cerebrospinal fluid (ACSF) containing 124 mM NaCl, 5 mM KCl, 1.25 mM NaH2PO4, 26 mM NaHCO3, 0.8 mM MgCl2, 1.8 mM CaCl2, 10 mM dextrose, and saturated with 95% O2, 5% CO2. Cultures were then incubated with ACSF containing 1 mg/ml Sulfo-NHS-LC-Biotin (Pierce Chemical Company, Rockford, Ill.) for 30 min on ice. Cultures were rinsed in TBS to quench the biotin reaction. […] Quantitative western blots were performed on both total and biotinylated (surface) proteins using anti-GluR1 C-terminal (1:1000, Upstate Biotechnology, Lake Placid, N.Y.) and anti-NR1 N-terminal antibodies (1:1000, Chemicon). […] Digital images, produced by densitometric scans of autoradiographs on a ScanJet IIcx (Hewlett Packard, Palo Alto, Calif.) with DeskScan II software (Hewlett Packard), were quantified using NIH Image 1.60 software. The surface/total ratio was calculated for each culture, and treatment groups were compared using a paired t-test. […] For display purposes, the data are expressed as the ratio of DHPG to control values."}, "[2]": {"system": "hippocampal slices from Fmr1-KO mice and wildtype littermates", "experiment": "DHPG-induced mGluR-LTD of field potentials in hippocampal slices of Fmr1-KO and WT mice", "type": "cell-based, C57BL/6 congenic mice", "protocol": "ACSF at a rate of 2 ml/min.\nFresh stocks were made once a week."}, "[3]": {"system": "hippocampal area CA1 slices", "experiment": "Sharp electrode EPSP and whole cell voltage-clamp EPSC recordings in hippocampal slices", "type": "cell-based, Long Evans rats", "conditions": "DHPG 50 μM, 5 min", "protocol": "All animals were used in accordance with procedures approved by the Brown University Institutional Animal Care and Use Committee. Hippocampal slices were prepared from postnatal day 21-30 (P21-30) Long Evans rats (Charles River, Cambridge, Mass.) and mGluR5 knockout mice (Lu et al. 1997) as described previously (Huber et al. 2000). For most experiments, CA3 was removed immediately after sectioning. Slices recovered for 1-2 h at room temperature (rats) or at 30° C. (mice) in artificial cerebrospinal fluid (ACSF) containing (in mM) 124 NaCl, 5 KCl, 1.25 NaH2PO4, 26 NaHCO3, 1 MgCl2, 2 CaCl2, and 10 dextrose, saturated with 95% O2-5% CO2. For recording, slices were placed in a submersion recording chamber and perfused with 30° C. ACSF at a rate of 2 ml/min.\nSynaptically evoked field potentials (FPs) were recorded from area CA1 as described previously. […]\nThe group data were analyzed as follows: 1) the initial slopes of the FPs and excitatory postsynaptic potentials (EPSPs), or the amplitude of the excitatory postsynaptic currents (EPSCs), for each experiment were expressed as percentages of the preconditioning or DHPG baseline average, 2) the time scale in each experiment was converted to time from the onset of conditioning or DHPG, and 3) the time-matched, normalized data were averaged across experiments and expressed in the text and figures as the means ±SE. […]"}, "[4]": {"conditions": "DHPG 100 μM, 5 min, in APV, 60 min after DHPG"}}, "data": [{"smiles": "NC(C(=O)O)c1cc(O)cc(O)c1", "note": "(racemic) [DHPG, (RS)-3,5-dihydroxyphenylglycine]", "values": [{"measurement": "surface NR1 (surface/total), % of the value in control cultures", "setting": "[1]; 60 minutes later, cycloheximide 60 μM with DHPG where named", "value": "32.3±8.2", "unit": "%"}, {"measurement": "surface GluR1 (surface/total), % of the value in control cultures", "setting": "[1]; biotin labeling 60 minutes later", "value": "56.8±4.0", "unit": "%"}, {"measurement": "FP slope, % of pre-DHPG baseline, Fmr1-KO mice", "setting": "[2]; [4]", "value": "77±3", "unit": "%"}, {"measurement": "FP slope, % of pre-DHPG baseline, WT mice", "setting": "[2]; [4]", "value": "88±4", "unit": "%"}, {"measurement": "maximal acute depression, % of pre-DHPG baseline values, KO", "setting": "[2]; DHPG, Fmr1-KO slices", "value": "26±5", "unit": "%"}, {"measurement": "maximal acute depression, % of pre-DHPG baseline values, WT", "setting": "[2]; DHPG, WT slices", "value": "36±4", "unit": "%"}, {"measurement": "EPSP slope after DHPG (LTD), % of baseline", "setting": "[3]; sharp electrode recording", "value": "61±5", "unit": "%"}, {"measurement": "EPSC amplitude after DHPG (LTD), % of baseline", "setting": "[3]; whole cell voltage clamp at −70 mV", "value": "69±5", "unit": "%"}]}]}
